In brackets after ≈: the same amount, converted by molar mass.
Key:
Type in all cases: cell-based
[1] = tested on: Trichophyton mentagrophytes; test: Checkerboard synergism assay with fluconazole; conditions: Trichophyton mentagrophytes, checkerboard, 168 hours, read-out: MIC, substances alone
Method: (§1) The drug activity was assessed using a checkerboard method derived from a standardised procedure established by the National Committee for Clinical Laboratory Standards ([…]-A2). Briefly, the test was performed on the same medium used for susceptibility testing. Volumes of 50 μL of each drug in a concentration four times the final concentration were dispensed in 96-well plates ([…], Switzerland). To each well, 100 μL of the fungal suspension was added to produce a final concentration of 5.0 × 10^3 CFU/mL. As a negative control, we used 200 μL of RPMI, while as a positive control, we used 100 μL of RPMI medium with 100 μL of inoculum. The plates were incubated at 35°C, and the reading was completed after 168 hours. We conducted visual and spectrophotometric readings at 490 nm. To determine the effect of combinatorial fractions, we calculated the fractional inhibitory concentration (FIC). The FIC was calculated by taking the MIC of the substance in combination/MIC of the substance alone. The sum of the fractional inhibitory concentration (FIC) of each substance consists of the fractional inhibitory concentration index: (the MIC of drug A in combination/the MIC of drug A alone) + (the MIC of drug B in combination/the MIC of drug B alone).

Trichophyton rubrum [2] = test: Checkerboard synergism assay with fluconazole; conditions: Trichophyton rubrum; Tr1; checkerboard, 168 hours; read-out: MIC, substances alone
Method: as §1

[3] = tested on: Trichophyton mentagrophytes; test: Broth microdilution MIC (CLSI M38-A2, modified)
Method: (§2) To evaluate its antifungal activity, […] of dermatophytes were tested: two clinical strains of Trichophyton rubrum (Tr1 and Tr2), Trichophyton rubrum ATCC MYA 3108, two clinical strains of Trichophyton mentagrophytes (Tm1 and Tm2), and Trichophyton mentagrophytes ATCC 40131 (Tm3). The microorganisms were obtained from the collection of the Clinical Mycology Laboratory of the Department of Clinical Analyses at the School of Pharmaceutical Sciences of Universidade Estadual Paulista (UNESP). The strains were cultivated on Sabouraud dextrose agar (Difco, BD Biosciences) and incubated at 28°C for 7-15 days. For all experiments, the strains were cultivated on Potato Dextrose Agar (Difco, BD Biosciences) and incubated at 28°C as described above or until sporulation. The dilution of the synthetic compounds was performed with DMSO (Synth, Diadema, Sao Paulo, Brazil) as described by Scorzoni et al.. […] The antifungal drugs were diluted according to the CLSI […]-A2 document. Stock solutions of Fluconazole (Sigma-Aldrich, St. Louis, MO, USA) were prepared, considering its power. Serial twofold dilutions were prepared according to the recommendations of Zhang and collaborators, with some modifications. The antifungal activity tests were performed using the broth microdilution method as described in […]-A2, a document produced by the Clinical and Laboratory Standards Institute (CLSI, 2008), with modifications. The medium used was RPMI 1640 with L-glutamine (Sigma-Aldrich, St. Louis, MO, USA) buffered to pH 7.0 with 0.165 M morpholinepropanesulfonic acid (MOPS) (Sigma-Aldrich, St. Louis, MO, USA), supplemented with 2% glucose. […] The suspension of conidia was then transferred to small sterile test tubes where they remained for 40 minutes to separate the microconidia, which were lighter and therefore present in the supernatant. […] These suspensions were diluted in RPMI 1640 (Sigma-Aldrich, St. […] Positive (100 μL of RPMI medium with 100 μL of inoculum) and negative (200 μL of RPMI) controls were included in all experiments. The plates were incubated with agitation at 35°C for 7 days. The MIC reading was performed by spectrophotometry at 490 nm.

Trichophyton rubrum [4] = test: Broth microdilution MIC (CLSI M38-A2, modified)
Method: as §2

[5] = tested on: Trichophyton mentagrophytes; test: Minimum fungicide concentration (MFC)
Method: (§3) A qualitative analysis of the fungal viability was performed by transferring a portion of the wells to a plate with Sabouraud (Difco, BD Biosciences) medium and incubating it at 35°C for the time determined for each fungal agent. […] A visual reading was performed to confirm the death or growth inhibition provided by fluconazole and the sixteen semisynthetic substances derived from protocatechuic acid.

Trichophyton rubrum [6] = test: Minimum fungicide concentration (MFC)
Method: as §3

[7] = Tm1, clinical isolate, 35°C, 7 days
[8] = Tm2, clinical isolate, 35°C, 7 days
[9] = Tm3, T. mentagrophytes ATCC 40131, 35°C, 7 days
[10] = Tr1, T. rubrum clinical isolate, 35°C, 7 days
[11] = Tr2, T. rubrum clinical isolate, 35°C, 7 days
[12] = Tr3, T. rubrum ATCC MYA 3108, 35°C, 7 days
[13] = Tm3, T. mentagrophytes ATCC 40131
[14] = Tr1, T. rubrum clinical isolate
[15] = Tr2, T. rubrum clinical isolate

OC(Cn1cncn1)(Cn1cncn1)c1ccc(F)cc1F [FLU, Fluconazole]
MIC ([1]; ATCC40131, Tm3 (ATCC 40131)): 0.5 µg/mL
MIC ([1]; Tm1): 1 µg/mL
MIC (Trichophyton rubrum [2]): 2 µg/mL

CCCOC(=O)c1ccc(O)c(O)c1 [Protocatechuate propyl]
MIC [3, 7]: 15.6 µg/mL (≈ 79.5 µM)
MIC [3, 8]: 62.5 µg/mL (≈ 319 µM)
MIC [3, 9]: 15.6 µg/mL (≈ 79.5 µM)
MIC (Trichophyton rubrum [4]; [10]): 15.6 µg/mL (≈ 79.5 µM)
MIC (Trichophyton rubrum [4]; [11]): 31.2 µg/mL (≈ 159 µM)
MIC (Trichophyton rubrum [4]; [12]): 31.2 µg/mL (≈ 159 µM)
MFC ([5]; Tm1, clinical isolate): 62.5 µg/mL (≈ 319 µM)
MFC ([5]; Tm2, clinical isolate): 62.5 µg/mL (≈ 319 µM)
MFC [5, 13]: 31.2 µg/mL (≈ 159 µM)
MFC (Trichophyton rubrum [6]; [14]): 15.6 µg/mL (≈ 79.5 µM)
MFC (Trichophyton rubrum [6]; [15]): 31.2 µg/mL (≈ 159 µM)
MFC (Trichophyton rubrum [6]; Tr3, T. rubrum ATCC MYA 3108): 31.2 µg/mL (≈ 159 µM)

CCCCOC(=O)c1ccc(O)c(O)c1 [Protocatechuate butyl]
MIC [3, 7]: 7.80 µg/mL (≈ 37.1 µM)
MIC [3, 8]: 15.6 µg/mL (≈ 74.2 µM)
MIC [3, 9]: 15.6 µg/mL (≈ 74.2 µM)
MIC (Trichophyton rubrum [4]; [10]): 15.6 µg/mL (≈ 74.2 µM)
MIC (Trichophyton rubrum [4]; [11]): 7.8 µg/mL (≈ 37.1 µM)
MIC (Trichophyton rubrum [4]; [12]): 7.8 µg/mL (≈ 37.1 µM)
MFC ([5]; Tm1, clinical isolate): 62.5 µg/mL (≈ 297 µM)
MFC ([5]; Tm2, clinical isolate): 15.6 µg/mL (≈ 74.2 µM)
MFC [5, 13]: 15.6 µg/mL (≈ 74.2 µM)
MFC (Trichophyton rubrum [6]; [14]): 15.6 µg/mL (≈ 74.2 µM)
MFC (Trichophyton rubrum [6]; [15]): 7.8 µg/mL (≈ 37.1 µM)
MFC (Trichophyton rubrum [6]; Tr3, T. rubrum ATCC MYA 3108): 7.8 µg/mL (≈ 37.1 µM)

CCCCCCCCCCCCCCCCOC(=O)c1ccc(O)c(O)c1 [Protocatechuate hexadecyl]
MIC [3, 7]: > 250 µg/mL
MIC [3, 8]: > 250 µg/mL
MIC [3, 9]: > 250 µg/mL
MIC (Trichophyton rubrum [4]; [10]): > 250 µg/mL
MIC (Trichophyton rubrum [4]; [11]): > 250 µg/mL
MIC (Trichophyton rubrum [4]; [12]): > 250 µg/mL
MFC ([5]; Tm1, clinical isolate): > 250 µg/mL
MFC ([5]; Tm2, clinical isolate): > 250 µg/mL
MFC [5, 13]: > 250 µg/mL
MFC (Trichophyton rubrum [6]; [14]): > 250 µg/mL
MFC (Trichophyton rubrum [6]; [15]): > 250 µg/mL
MFC (Trichophyton rubrum [6]; Tr3, T. rubrum ATCC MYA 3108): > 250 µg/mL

O=C(O)c1ccc(O)c(O)c1 [Acid protocatechuic, Protocatechuic acid (3,4-dihydroxybenzoic)]
MIC [3, 8]: 250 µg/mL (≈ 1620 µM)
MIC ([3]; Trichophyton mentagrophytes, 168 h): 250 µg/mL (≈ 1620 µM)
MIC ([3]; Trichophyton mentagrophytes, ATCC40131, 168 h): 125 µg/mL (≈ 811 µM)
MIC (Trichophyton rubrum [4]; [11]): 250 µg/mL (≈ 1620 µM)
MIC (Trichophyton rubrum [4]; [12]): 250 µg/mL (≈ 1620 µM)
MIC (Trichophyton rubrum [4]; Trichophyton rubrum, 168 h): 250 µg/mL (≈ 1620 µM)
MFC ([5]; Tm2, clinical isolate): > 250 µg/mL
MFC ([5]; Trichophyton mentagrophytes): > 250 µg/mL
MFC ([5]; Trichophyton mentagrophytes, ATCC40131): 125 µg/mL (≈ 811 µM)
MFC (Trichophyton rubrum [6]; [15]): 250 µg/mL (≈ 1620 µM)
MFC (Trichophyton rubrum [6]; Tr3, T. rubrum ATCC MYA 3108): 250 µg/mL (≈ 1620 µM)
MFC (Trichophyton rubrum [6]; Trichophyton rubrum): 250 µg/mL (≈ 1620 µM)

CCOC(=O)c1ccc(O)c(O)c1 [Protocatechuate ethyl]
MIC [3, 7]: 31.2 µg/mL (≈ 171 µM)
MIC [3, 8]: 31.2 µg/mL (≈ 171 µM)
MIC [3, 9]: 31.2 µg/mL (≈ 171 µM)
MIC (Trichophyton rubrum [4]; [10]): 31.2 µg/mL (≈ 171 µM)
MIC (Trichophyton rubrum [4]; [11]): 31.2 µg/mL (≈ 171 µM)
MIC (Trichophyton rubrum [4]; [12]): 31.2 µg/mL (≈ 171 µM)
MFC ([5]; Tm1, clinical isolate): 62.5 µg/mL (≈ 343 µM)
MFC ([5]; Tm2, clinical isolate): 31.2 µg/mL (≈ 171 µM)
MFC [5, 13]: 125 µg/mL (≈ 686 µM)
MFC (Trichophyton rubrum [6]; [14]): 31.2 µg/mL (≈ 171 µM)
MFC (Trichophyton rubrum [6]; [15]): 31.2 µg/mL (≈ 171 µM)
MFC (Trichophyton rubrum [6]; Tr3, T. rubrum ATCC MYA 3108): 31.2 µg/mL (≈ 171 µM)

COC(=O)c1ccc(O)c(O)c1 [Protocatechuate methyl]
MIC [3, 7]: 62.5 µg/mL (≈ 372 µM)
MIC [3, 8]: 62.5 µg/mL (≈ 372 µM)
MIC [3, 9]: 31.2 µg/mL (≈ 186 µM)
MIC (Trichophyton rubrum [4]; [10]): 62.5 µg/mL (≈ 372 µM)
MIC (Trichophyton rubrum [4]; [11]): 31.2 µg/mL (≈ 186 µM)
MIC (Trichophyton rubrum [4]; [12]): 31.2 µg/mL (≈ 186 µM)
MFC ([5]; Tm1, clinical isolate): 250 µg/mL (≈ 1490 µM)
MFC ([5]; Tm2, clinical isolate): 62.5 µg/mL (≈ 372 µM)
MFC [5, 13]: 62.5 µg/mL (≈ 372 µM)
MFC (Trichophyton rubrum [6]; [14]): 62.5 µg/mL (≈ 372 µM)
MFC (Trichophyton rubrum [6]; [15]): 31.2 µg/mL (≈ 186 µM)
MFC (Trichophyton rubrum [6]; Tr3, T. rubrum ATCC MYA 3108): 62.5 µg/mL (≈ 372 µM)

— publication PMC4086519, “Anti-Trichophyton Activity of Protocatechuates and Their Synergism with Fluconazole” (Evidence-based Complementary and Alternative Medicine : eCAM, 2014)
